One block for each molecule: values may come before it. The source made the active and inactive calls. Unless noted, no cut-off for these calls is given here.
What was measured:
[1] = test system: HEK293; assay: SAR analysis of compounds that are cytotoxic to HEK293 - Set 2. [Related pubchem assays (depositor defined):AID1575, AID1578, AID1849, AID2001, AID2333, AID2334, AID2335, AID2337, AID2800]; format: functional, cell-based; conditions: Homo sapiens
[2] = target: T1, Interleukin-8 (Homo sapiens, UniProt P10145); assay: SAR analysis of GM-Tri-DAP induced IL-8 secretion in MCF-7/NOD1 cells - Set 2. [Related pubchem assays (depositor defined):AID1575, AID1578, AID2333]; format: functional, cell-based
T1 sequence (P10145 whole entry): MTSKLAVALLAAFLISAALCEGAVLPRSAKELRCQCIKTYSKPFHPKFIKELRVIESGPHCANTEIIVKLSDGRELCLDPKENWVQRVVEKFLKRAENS

[3] = test system: HEK293; assay: SAR analysis of compounds that are cytotoxic to HEK293 - Set 3. [Related pubchem assays (depositor defined):AID1575, AID1578, AID1848, AID1849, AID2001, AID2333, AID2334, AID2335, AID2337, AID2469]; format: functional, cell-based; conditions: Homo sapiens
[4] = target: T1, Interleukin-8; assay: SAR analysis of Tumor necrosis factor alpha (TNF-alpha) induced IL-8 secretion in MCF-7/NOD1 cells - Set 2. [Related pubchem assays (depositor defined):AID1575, AID2250, AID2260]; format: functional, cell-based
[5] = target: T2, Nucleotide-binding oligomerization domain-containing protein 1 (Homo sapiens, UniProt Q9Y239); assay: SAR analysis of compounds that inhibit NOD1 - Set 3. [Related pubchem assays (depositor defined):AID1566, AID1575, AID1578, AID1849, AID1852, AID2333, AID2335, AID2466]; format: functional
T2 sequence (Q9Y239 whole entry): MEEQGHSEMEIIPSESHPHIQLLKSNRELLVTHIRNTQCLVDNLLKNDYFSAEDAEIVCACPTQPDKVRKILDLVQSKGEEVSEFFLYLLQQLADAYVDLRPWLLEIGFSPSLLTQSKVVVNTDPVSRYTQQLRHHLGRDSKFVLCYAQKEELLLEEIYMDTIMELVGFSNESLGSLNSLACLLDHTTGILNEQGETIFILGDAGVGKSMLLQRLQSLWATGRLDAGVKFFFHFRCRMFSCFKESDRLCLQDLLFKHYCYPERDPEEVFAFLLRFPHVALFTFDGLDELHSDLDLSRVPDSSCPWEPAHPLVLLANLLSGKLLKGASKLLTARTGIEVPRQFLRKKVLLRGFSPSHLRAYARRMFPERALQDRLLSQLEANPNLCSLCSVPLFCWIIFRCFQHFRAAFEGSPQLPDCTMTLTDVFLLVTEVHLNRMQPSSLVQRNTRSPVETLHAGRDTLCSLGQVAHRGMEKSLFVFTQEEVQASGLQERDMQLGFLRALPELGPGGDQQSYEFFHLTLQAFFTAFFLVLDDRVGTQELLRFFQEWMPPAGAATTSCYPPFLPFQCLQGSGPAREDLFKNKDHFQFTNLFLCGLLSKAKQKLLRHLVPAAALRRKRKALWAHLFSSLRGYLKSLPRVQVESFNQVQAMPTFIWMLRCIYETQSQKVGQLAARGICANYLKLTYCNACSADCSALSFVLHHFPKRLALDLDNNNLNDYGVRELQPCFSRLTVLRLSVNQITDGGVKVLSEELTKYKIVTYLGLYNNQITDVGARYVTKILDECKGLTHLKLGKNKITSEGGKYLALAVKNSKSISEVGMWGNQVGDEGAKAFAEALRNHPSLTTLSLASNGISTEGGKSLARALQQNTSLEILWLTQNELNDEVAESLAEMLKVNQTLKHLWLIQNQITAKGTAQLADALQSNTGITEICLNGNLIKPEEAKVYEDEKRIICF

[6] = target: Tumor necrosis factor (Homo sapiens, UniProt P01375); assay: analog potency on TNFa NF-kB signaling – cell-based, set 3, SAR follow-up (AID 2801); format: functional
[7] = target: T3, Nucleotide-binding oligomerization domain-containing protein 2 (Homo sapiens, UniProt Q9HC29); assay: inhibition of MDP-driven NOD2 NF-kB reporter – cell-based, set 3, SAR follow-up (AID 2799); format: functional
[8] = target: T2, Nucleotide-binding oligomerization domain-containing protein 1; assay: SAR analysis of NF-kappaB dependent luciferase using DAP as an inducer - Set 2. [Related pubchem assays (depositor defined):AID1566, AID1575, AID1578, AID1579, AID1849, AID1852, AID2264]; format: functional
[9] = target: T3, Nucleotide-binding oligomerization domain-containing protein 2; assay: inhibition of NOD2 signaling – set 2, SAR follow-up (AID 2475); format: functional
[10] = target: T4, E3 ubiquitin-protein ligase XIAP (Homo sapiens, UniProt P98170); assay: SAR analysis of Antagonists of XIAP-Bir3 domain of IAP-family anti-apoptotic proteins. [Related pubchem assays (depositor defined):AID1018, AID1449, AID1513, AID1514, AID1638]
[11] = target: T4, E3 ubiquitin-protein ligase XIAP; assay: SAR analysis of Antagonists of IAP-family anti-apoptotic proteins. [Related pubchem assays (depositor defined):AID1018, AID1449, AID1513, AID1514, AID1638]
[12] = target: T5, Kappa-type opioid receptor (Homo sapiens, UniProt P41145); assay: SAR analysis of small molecule antagonists of the kappa opioid receptor via a luminescent beta-arrestin assay - Set 5. [Related pubchem assays (depositor defined):AID1778, AID1785]; format: functional
[13] = target: T5, Kappa-type opioid receptor; assay: SAR analysis of small molecule antagonists of the kappa opioid receptor via a luminescent beta-arrestin assay - Set 4. [Related pubchem assays (depositor defined):AID1777, AID1778, AID1785, AID1786, AID1966, AID2133, AID2136, AID2285]; format: functional
[14] = PhoP promoter GFP reporter reduction in Typhimurium – purified and synthesized compounds, set 2, PhoP regulon inhibitor project, dose response (AID 2831); format: functional

T5 sequence (P41145 whole entry): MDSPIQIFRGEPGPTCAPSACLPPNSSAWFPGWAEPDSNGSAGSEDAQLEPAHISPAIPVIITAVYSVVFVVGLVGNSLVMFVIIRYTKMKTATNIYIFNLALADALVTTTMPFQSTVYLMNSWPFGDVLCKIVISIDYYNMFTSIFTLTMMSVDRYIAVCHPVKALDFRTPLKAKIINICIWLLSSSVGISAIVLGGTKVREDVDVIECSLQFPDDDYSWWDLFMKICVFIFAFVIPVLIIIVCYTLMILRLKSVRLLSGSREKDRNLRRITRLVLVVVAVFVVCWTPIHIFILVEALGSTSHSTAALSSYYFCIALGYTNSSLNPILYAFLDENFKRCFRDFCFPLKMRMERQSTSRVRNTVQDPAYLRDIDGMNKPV
T3 sequence (Q9HC29 whole entry, the tested form may be a part): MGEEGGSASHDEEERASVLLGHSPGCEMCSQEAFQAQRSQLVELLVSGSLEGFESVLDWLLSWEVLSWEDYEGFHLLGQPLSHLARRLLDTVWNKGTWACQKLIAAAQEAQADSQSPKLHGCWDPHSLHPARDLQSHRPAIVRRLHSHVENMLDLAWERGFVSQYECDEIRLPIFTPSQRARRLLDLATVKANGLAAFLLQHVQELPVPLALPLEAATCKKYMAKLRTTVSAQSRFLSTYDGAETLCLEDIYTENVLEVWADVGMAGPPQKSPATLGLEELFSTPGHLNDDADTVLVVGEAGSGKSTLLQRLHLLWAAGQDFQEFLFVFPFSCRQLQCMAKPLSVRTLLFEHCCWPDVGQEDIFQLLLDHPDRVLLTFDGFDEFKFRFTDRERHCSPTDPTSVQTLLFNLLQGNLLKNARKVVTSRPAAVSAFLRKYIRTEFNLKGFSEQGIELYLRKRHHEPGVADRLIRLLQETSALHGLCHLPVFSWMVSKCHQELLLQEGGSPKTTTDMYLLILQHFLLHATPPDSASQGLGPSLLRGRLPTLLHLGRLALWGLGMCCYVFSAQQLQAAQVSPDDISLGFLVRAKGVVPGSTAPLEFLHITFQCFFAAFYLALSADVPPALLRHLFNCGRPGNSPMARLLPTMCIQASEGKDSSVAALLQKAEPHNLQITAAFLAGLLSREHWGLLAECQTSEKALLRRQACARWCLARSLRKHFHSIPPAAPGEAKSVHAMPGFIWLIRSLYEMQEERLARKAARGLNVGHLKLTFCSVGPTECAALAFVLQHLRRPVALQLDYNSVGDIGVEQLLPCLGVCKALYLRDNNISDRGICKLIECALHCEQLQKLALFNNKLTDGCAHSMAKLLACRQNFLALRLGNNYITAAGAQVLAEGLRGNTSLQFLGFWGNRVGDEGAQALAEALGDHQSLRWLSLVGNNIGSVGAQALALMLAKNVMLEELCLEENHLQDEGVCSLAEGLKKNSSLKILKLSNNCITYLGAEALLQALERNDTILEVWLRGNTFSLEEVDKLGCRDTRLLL
T4 sequence (P98170 whole entry, the tested form may be a part): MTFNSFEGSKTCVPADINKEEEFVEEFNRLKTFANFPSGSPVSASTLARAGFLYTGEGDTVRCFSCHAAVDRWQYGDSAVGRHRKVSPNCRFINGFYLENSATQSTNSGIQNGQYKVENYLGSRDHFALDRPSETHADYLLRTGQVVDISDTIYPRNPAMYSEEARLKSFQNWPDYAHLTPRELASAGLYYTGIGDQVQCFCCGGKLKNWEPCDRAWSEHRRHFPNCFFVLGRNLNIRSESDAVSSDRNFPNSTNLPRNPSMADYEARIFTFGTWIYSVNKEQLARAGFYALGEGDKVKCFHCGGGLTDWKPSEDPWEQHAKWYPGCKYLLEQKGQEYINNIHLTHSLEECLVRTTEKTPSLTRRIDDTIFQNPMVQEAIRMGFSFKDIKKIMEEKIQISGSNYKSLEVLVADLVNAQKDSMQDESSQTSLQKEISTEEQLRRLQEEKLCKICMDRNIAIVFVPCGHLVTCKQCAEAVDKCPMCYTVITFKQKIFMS
Sequence of Tumor necrosis factor (P01375 whole entry, the tested form may be a part): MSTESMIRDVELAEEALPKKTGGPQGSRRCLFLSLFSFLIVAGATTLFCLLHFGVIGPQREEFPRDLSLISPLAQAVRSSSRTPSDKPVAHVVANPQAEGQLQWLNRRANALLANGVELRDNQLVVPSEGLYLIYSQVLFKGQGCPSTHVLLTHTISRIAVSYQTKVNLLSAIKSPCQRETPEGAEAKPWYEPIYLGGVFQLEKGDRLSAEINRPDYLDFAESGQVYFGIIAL

Structure (SMILES): CCCCCn1c(SCCc2ccccc2)nc2c1c(=O)[nH]c(=O)n2C
- IC50 [1]: > 20 µM (inactive)
- IC50 [2]: 4.1 µM (active)
- IC50 [3]: > 20 µM (inactive)
- IC50 [4]: > 25 µM (inactive)
- IC50 [5]: 1.74 µM (active)
- IC50 [6]: > 20 µM (inactive)
- IC50 [7]: > 20 µM (inactive)
- IC50 [8]: > 25 µM (inactive)
- IC50 [9]: > 20 µM (inactive)

- IC50 [10]: 132 µM (active)
- IC50 [11]: 4.7 µM (active)
Structure (SMILES): CN[C@@H](C)C(=O)N[C@H](C(=O)N[C@@H](C)C(=O)NNc1ccccc1)C(C)C

- IC50 [12]: > 20 µM (inactive)
- IC50 [13]: > 20 µM (inactive)
Structure (SMILES): Cc1ccc(S(=O)(=O)NCc2ccc(C(=O)NCCN(Cc3ccc([N+](=O)[O-])cc3)C(C)C)cc2)cc1

- IC50 [14]: > 125 µM (active)
Structure (SMILES): OC1=C2C(=Nc3ccccc3SC2c2ccco2)c2ccccc21 (centres undefined)

Reference: ChEMBL document CHEMBL1201862, “PubChem BioAssay data set” (2004)
